{"source": "paper PMC5770468", "about": "“Cardiac glycoside/aglycones inhibit HIV-1 gene expression by a mechanism requiring MEK1/2-ERK1/2 signaling” (Scientific Reports, 2018)", "system": "SRp20/SRSF3", "test": "Immunoblot of SRp20 in HeLa rtTA-HIV-ΔMls cells", "type": "cell-based, human", "settings": "3 d with ~IC50s of CSs", "source_text": "Figure 4 CSs suppress HIV-1 gene expression by altering viral RNA processing. […] (a,b) CSs induce oversplicing of HIV-1 RNAs (n ≥ 3, mean, s.e.m.). (a) Diagram of the primer positions (arrow heads) used for qRT-PCR. (b) Graph of the relative amount of US (black), SS (white), and MS (gray) HIV-1 RNAs in cells treated with various CSs. (c) Nuclear export of HIV-1 US RNAs in cells is altered by CSs (representative n ≥ 4). HIV-1 US RNAs were localized by FISH after treating HeLa rtTA-HIV(Gag-GFP) cells as described above but with ~IC90s of CSs. Nuclei were stained by DAPI and images captured at 630 × magnification. […] SRp20, Tra2β, and tubulin were analyzed by immunoblot of HeLa rtTA-HIV-ΔMls cells treated as described above except cells of this representative blot were treated 3 d with ~IC50s of CSs. […]\nTo monitor HIV-1 gene expression or replication, Gag release into cell culture supernatants were assayed by ELISA using a p24^CA antigen capture assay kit (AIDS & Cancer Virus Program, NCI-Frederick, Frederick, MD USA). […] For analysis of HIV-1 and SR protein expression (and phosphorylation states with calf intestinal alkaline phosphatase treatments), cells were lysed and analyzed by western blot as previously outlined. […] Activation of MAPKs was determined by western blot quantitation and calculation of phospho/total protein levels. […]", "data": [{"smiles": "C[C@]12CC[C@H](O)C[C@H]1CC[C@@H]1[C@@H]2CC[C@]2(C)[C@@H](C3=CC(=O)OC3)CC[C@]12O", "note": "[Digitoxigenin]", "values": [{"measurement": "mobility of SRp20", "result": "increased the mobility"}]}]}
